Test results taken from ChEMBL document CHEMBL1143265, “Discovery of thiophene inhibitors of polo-like kinase” (Bioorg Med Chem Lett, 2009).

Key:
[1] = target: Serine/threonine-protein kinase PLK1 (Homo sapiens, UniProt P53350); experiment: Inhibition of PLK1 expressed in baculovirus-infected Trichoplusia-ni cells by scintillation proximity assay
HCT-116 = experiment: Antiproliferative activity against human HCT116 cells after 3 days by methylene blue stain technique; format: functional, cell-based; settings: HCT-116, 72 h
[2] = target: Vascular endothelial growth factor receptor 3 (Homo sapiens, UniProt P35916); experiment: Inhibition of VEGFR3
[3] = target: Epidermal growth factor receptor (Homo sapiens, UniProt P00533); experiment: Inhibition of EGFR
[4] = target: Mitogen-activated protein kinase 14 (Homo sapiens, UniProt Q16539); experiment: Inhibition of p38alpha
[5] = target: Proto-oncogene tyrosine-protein kinase Src (Homo sapiens, UniProt P12931); experiment: Inhibition of Src
[6] = Clearance in mouse at 6.7 mg/kg, iv; format: ADME, organism-based; parameters: dose 6.7 mg/kg, route intravenous; settings: in vivo
[7] = Volume of distribution at steady state in mouse at 6.7 mg/kg, iv; format: ADME, organism-based; parameters: dose 6.7 mg/kg, route intravenous; settings: in vivo, read-out: Vdss
[8] = AUC in mouse at 10 mg/kg, po; format: ADME, organism-based; parameters: dose 10 mg/kg, route oral; settings: plasma
[9] = Oral bioavailability in mouse at 10 mg/kg; format: ADME, organism-based; settings: in vivo
[10] = Inhibition of GSK3
A549 = experiment: Antiproliferative activity against human A549 cells after 3 days by methylene blue stain technique; format: functional, cell-based; settings: A549, 72 h
NCI-H460 = experiment: Antiproliferative activity against human H460 cells after 3 days by methylene blue stain technique; format: functional, cell-based; settings: NCI-H460, 72 h
HN5 = experiment: Antiproliferative activity against human HN5 cells after 3 days by methylene blue stain technique; format: functional, cell-based; settings: HN5, 72 h
MCF7 = experiment: Antiproliferative activity against human MCF7 cells after 3 days by methylene blue stain technique; format: functional, cell-based; settings: MCF7, 72 h
NCI-N87 = experiment: Antiproliferative activity against human NCI-N87 cells after 3 days by methylene blue stain technique; format: functional, cell-based; settings: NCI-N87, 72 h
RKO = experiment: Antiproliferative activity against human RKO cells after 3 days by methylene blue stain technique; format: functional, cell-based; settings: 72 h
PC-3 = experiment: Antiproliferative activity against human PC3 cells after 3 days by methylene blue stain technique; format: functional, cell-based; settings: PC-3, 72 h

Sequence of Serine/threonine-protein kinase PLK1 (P53350 whole entry): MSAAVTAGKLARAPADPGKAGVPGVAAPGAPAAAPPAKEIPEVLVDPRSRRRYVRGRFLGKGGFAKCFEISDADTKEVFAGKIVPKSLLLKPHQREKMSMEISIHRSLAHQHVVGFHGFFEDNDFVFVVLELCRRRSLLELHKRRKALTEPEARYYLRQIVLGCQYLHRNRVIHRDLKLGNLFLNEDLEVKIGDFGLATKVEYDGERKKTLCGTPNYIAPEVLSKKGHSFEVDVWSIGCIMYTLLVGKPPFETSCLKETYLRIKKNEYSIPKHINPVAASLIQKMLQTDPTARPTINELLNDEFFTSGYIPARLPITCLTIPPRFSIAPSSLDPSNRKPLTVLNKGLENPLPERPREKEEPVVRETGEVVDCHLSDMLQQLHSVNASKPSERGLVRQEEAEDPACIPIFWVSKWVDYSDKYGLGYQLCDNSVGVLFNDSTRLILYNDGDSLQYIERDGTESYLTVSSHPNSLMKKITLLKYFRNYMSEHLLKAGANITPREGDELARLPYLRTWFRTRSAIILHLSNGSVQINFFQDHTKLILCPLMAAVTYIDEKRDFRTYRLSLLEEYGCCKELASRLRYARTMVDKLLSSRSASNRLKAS
Sequence of Vascular endothelial growth factor receptor 3 (P35916 whole entry): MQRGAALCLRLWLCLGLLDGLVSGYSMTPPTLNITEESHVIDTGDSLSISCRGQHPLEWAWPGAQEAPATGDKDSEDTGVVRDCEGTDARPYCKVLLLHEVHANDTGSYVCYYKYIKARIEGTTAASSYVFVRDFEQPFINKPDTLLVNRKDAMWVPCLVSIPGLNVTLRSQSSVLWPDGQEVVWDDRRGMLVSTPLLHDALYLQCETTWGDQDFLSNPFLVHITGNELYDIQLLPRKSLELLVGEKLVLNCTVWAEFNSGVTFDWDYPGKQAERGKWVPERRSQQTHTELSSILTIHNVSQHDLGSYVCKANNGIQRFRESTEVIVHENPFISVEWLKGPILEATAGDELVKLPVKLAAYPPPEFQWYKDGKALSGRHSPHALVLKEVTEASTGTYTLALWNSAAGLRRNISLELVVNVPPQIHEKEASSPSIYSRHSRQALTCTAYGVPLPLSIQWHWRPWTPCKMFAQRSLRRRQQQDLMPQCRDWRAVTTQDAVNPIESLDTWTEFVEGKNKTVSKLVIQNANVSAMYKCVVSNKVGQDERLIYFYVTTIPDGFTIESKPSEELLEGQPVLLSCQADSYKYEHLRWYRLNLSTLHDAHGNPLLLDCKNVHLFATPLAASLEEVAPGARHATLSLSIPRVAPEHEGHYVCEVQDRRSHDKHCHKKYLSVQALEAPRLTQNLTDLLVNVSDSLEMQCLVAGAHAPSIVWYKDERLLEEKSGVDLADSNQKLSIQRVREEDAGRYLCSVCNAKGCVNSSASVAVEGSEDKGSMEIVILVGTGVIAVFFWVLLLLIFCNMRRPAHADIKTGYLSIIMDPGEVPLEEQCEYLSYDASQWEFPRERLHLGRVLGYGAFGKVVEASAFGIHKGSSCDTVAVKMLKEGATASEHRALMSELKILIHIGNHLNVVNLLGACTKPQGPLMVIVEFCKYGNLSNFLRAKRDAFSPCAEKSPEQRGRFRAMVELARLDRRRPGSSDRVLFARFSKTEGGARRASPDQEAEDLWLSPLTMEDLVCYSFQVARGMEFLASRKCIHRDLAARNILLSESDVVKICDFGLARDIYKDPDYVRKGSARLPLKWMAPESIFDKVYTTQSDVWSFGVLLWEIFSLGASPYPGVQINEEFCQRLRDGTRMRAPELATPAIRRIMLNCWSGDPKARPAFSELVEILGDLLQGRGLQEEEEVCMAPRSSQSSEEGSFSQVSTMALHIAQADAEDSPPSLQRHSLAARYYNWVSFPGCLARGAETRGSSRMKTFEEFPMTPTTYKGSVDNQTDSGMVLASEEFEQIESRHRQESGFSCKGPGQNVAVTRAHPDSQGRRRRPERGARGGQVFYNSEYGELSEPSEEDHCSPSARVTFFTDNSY
Sequence of Proto-oncogene tyrosine-protein kinase Src (P12931 2-536 limits assumed): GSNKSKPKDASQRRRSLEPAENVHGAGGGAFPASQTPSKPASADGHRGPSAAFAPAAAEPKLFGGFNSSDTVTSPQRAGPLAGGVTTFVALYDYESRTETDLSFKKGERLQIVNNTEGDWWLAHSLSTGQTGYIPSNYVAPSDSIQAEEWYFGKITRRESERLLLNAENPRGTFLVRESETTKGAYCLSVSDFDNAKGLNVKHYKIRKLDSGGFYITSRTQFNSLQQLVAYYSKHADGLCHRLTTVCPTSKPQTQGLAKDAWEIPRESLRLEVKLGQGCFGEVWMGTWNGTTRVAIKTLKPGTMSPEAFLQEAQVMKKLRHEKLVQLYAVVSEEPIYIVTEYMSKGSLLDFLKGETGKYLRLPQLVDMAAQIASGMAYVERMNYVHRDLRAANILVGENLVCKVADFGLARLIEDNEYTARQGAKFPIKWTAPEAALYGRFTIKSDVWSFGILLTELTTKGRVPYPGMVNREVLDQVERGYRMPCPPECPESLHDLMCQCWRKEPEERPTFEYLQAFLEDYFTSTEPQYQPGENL
Sequence of Epidermal growth factor receptor (P00533 whole entry): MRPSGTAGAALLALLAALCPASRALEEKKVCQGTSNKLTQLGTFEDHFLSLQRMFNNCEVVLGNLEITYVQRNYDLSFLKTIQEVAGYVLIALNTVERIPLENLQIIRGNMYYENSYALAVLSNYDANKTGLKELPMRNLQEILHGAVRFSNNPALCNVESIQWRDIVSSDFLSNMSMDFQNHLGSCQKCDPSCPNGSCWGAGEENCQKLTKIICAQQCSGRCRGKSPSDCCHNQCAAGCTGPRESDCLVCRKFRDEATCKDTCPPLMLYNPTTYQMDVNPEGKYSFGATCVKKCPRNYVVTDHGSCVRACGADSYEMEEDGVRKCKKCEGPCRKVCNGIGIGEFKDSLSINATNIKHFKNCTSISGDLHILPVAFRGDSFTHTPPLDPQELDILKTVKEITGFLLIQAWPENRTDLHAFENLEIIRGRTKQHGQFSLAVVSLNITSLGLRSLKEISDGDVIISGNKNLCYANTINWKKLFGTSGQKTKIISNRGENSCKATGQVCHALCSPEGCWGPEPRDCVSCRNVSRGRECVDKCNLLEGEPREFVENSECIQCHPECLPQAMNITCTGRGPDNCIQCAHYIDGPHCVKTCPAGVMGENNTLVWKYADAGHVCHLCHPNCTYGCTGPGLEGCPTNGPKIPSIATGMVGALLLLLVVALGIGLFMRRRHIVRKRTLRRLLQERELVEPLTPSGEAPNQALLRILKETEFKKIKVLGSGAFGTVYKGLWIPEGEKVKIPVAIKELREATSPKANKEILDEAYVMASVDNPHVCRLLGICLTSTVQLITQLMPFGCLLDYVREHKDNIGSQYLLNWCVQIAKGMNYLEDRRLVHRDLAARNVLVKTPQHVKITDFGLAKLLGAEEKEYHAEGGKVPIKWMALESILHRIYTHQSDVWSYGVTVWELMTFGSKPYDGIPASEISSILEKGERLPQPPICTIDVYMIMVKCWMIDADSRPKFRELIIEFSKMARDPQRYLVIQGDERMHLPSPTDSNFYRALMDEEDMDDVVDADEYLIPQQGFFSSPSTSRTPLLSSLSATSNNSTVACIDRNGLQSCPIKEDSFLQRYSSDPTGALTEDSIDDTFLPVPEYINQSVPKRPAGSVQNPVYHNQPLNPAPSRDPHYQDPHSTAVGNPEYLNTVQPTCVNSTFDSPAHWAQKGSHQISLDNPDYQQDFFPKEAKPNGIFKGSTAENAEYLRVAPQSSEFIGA
Sequence of Mitogen-activated protein kinase 14 (Q16539 whole entry): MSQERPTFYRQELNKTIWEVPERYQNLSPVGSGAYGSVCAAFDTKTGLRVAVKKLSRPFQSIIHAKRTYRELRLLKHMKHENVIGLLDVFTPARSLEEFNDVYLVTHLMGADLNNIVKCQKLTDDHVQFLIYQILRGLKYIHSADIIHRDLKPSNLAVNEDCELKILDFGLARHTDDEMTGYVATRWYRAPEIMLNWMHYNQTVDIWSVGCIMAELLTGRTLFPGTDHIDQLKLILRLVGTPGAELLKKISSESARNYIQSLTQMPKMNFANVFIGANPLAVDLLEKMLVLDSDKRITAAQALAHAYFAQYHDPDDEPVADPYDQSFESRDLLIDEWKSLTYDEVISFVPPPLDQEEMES

Row | SMILES | IC50 [1] | IC50 (HCT-116) | also measured
1 | COc1cc2ncn(-c3cc(OCc4ccc(S(C)(=O)=O)cc4)c(C(N)=O)s3)c2cc1OC | 75 nM | > 30000 nM | 
2 | COc1cc2ncn(-c3cc(OCc4ccccc4C(F)(F)F)c(C#N)s3)c2cc1OC | 700 nM |  | 
3 | NC(=O)c1sc(-n2cnc3ccccc32)cc1OCc1cccc(Cl)c1 | 22 nM |  | 
4 | Cc1cccc(COc2cc(-n3cnc4ccccc43)sc2C(N)=O)c1 | 12 nM |  | 
5 | Cc1ccc(COc2cc(-n3cnc4ccccc43)sc2C(N)=O)cc1 | 70 nM |  | 
6 | COc1cc2ncn(-c3cc(OCC4CCCC4)c(C(N)=O)s3)c2cc1OC | 34 nM | 3380 nM | 
7 | COc1cc2ncn(-c3cc(OCc4ccccc4Br)c(C(N)=O)s3)c2cc1OC | 2 nM | 926 nM | 
8 | COc1cc2ncn(-c3cc(OCc4ccccc4C#N)c(C(N)=O)s3)c2cc1OC | 6 nM | 2630 nM | 
9 | COc1cc2ncn(-c3cc(OCc4ccccc4OC(F)(F)F)c(C(N)=O)s3)c2cc1OC | 5 nM | 1150 nM | 
10 | COc1ccccc1COc1cc(-n2cnc3cc(OC)c(OC)cc32)sc1C(N)=O | 8 nM | 2110 nM | 
11 | COc1cc2ncn(-c3cc(OCc4ccccc4C(F)(F)F)c(C(=O)O)s3)c2cc1OC |  | 7660 nM | 
12 | COc1ccc(COc2cc(-n3cnc4ccccc43)sc2C(N)=O)cc1 | 35 nM |  | 
13 | NC(=O)c1sc(-n2cnc3ccccc32)cc1OCc1ccccc1Cl | 12 nM |  | 
14 | COc1ccc2ncn(-c3cc(OCc4ccccc4C(F)(F)F)c(C(N)=O)s3)c2c1 | 2 nM | 1230 nM | 
15 | COc1cc2ncn(-c3cc(OCc4ccccc4S(C)(=O)=O)c(C(N)=O)s3)c2cc1OC | 31 nM | 5430 nM | 
16 | COc1ccccc1COc1cc(-n2cnc3ccccc32)sc1C(N)=O | 12 nM |  | 
17 | COc1cc2ncn(-c3cc(OCc4cccc(N(C)C)c4)c(C(N)=O)s3)c2cc1OC | 31 nM | 3470 nM | 
18 | COc1cc2ncn(-c3cc(OCc4ccncc4)c(C(N)=O)s3)c2cc1OC | 130 nM | 21000 nM | 
19 | COc1cc2ncn(-c3cc(OCc4ccnc(Br)c4)c(C(N)=O)s3)c2cc1OC | 14 nM | 1770 nM | 
20 | COc1cc2ncn(-c3cc(OCc4cccc(N)c4)c(C(N)=O)s3)c2cc1OC | 21 nM | 2270 nM | 
21 | COc1cc2ncn(-c3cc(OCc4ccccc4)c(C(N)=O)s3)c2cc1OC | 12 nM | 1090 nM | 
22 | COc1cc2ncn(-c3cc(OCc4ccsc4)c(C(N)=O)s3)c2cc1OC | 17 nM | 1520 nM | 
23 | COc1cc2ncn(-c3cc(OCc4sccc4Cl)c(C(N)=O)s3)c2cc1OC | 2 nM | 1480 nM | 
24 | NC(=O)c1sc(-n2cnc3ccccc32)cc1OCc1ccc(Cl)cc1 | 100 nM |  | 
25 | Cc1ccccc1COc1cc(-n2cnc3cc(Cl)ccc32)sc1C(N)=O | 21 nM | > 28000 nM | 
26 | NC(=O)c1sc(-n2cnc3ccccc32)cc1OCc1ccccc1 | 61 nM |  | 
27 | COc1cc2ncn(-c3cc(OCc4ccccc4C(F)(F)F)c(C(N)=S)s3)c2cc1OC | 6 nM | > 30000 nM | 

Row | SMILES | IC50 [1] | IC50 (HCT-116) | also measured
28 | COc1cc2ncn(-c3cc(OCc4ccco4)c(C(N)=O)s3)c2cc1OC | 27 nM | > 25000 nM | 
29 | NC(=O)c1sc(-n2cnc3ccccc32)cc1OCc1ccccc1F | 14 nM |  | 
30 | COc1cc2ncn(-c3cc(OCc4cccc(C#N)c4)c(C(N)=O)s3)c2cc1OC | 99 nM | > 30000 nM | 
31 | COc1cc2ncn(-c3cc(OCc4ccccc4C(C)=O)c(C(N)=O)s3)c2cc1OC | 17 nM | 2640 nM | 
32 | COc1ccc(COc2cc(-n3cnc4cc(OC)c(OC)cc43)sc2C(N)=O)cc1 | 13 nM | 12100 nM | 
33 | CS(=O)(=O)c1ccc2ncn(-c3cc(OCc4ccccc4C(F)(F)F)c(C(N)=O)s3)c2c1 | 12 nM | 2960 nM | 
34 | COc1ccc2c(c1)ncn2-c1cc(OCc2ccccc2C(F)(F)F)c(C(N)=O)s1 | 8 nM | 2700 nM | 
35 | COc1cc2ncn(-c3cc(OCCCc4ccccc4)c(C(N)=O)s3)c2cc1OC |  | 7750 nM | 
36 | Cc1ccccc1COc1cc(-n2cnc3ccccc32)sc1C(N)=O | 12 nM |  | 
37 | Cc1ccccc1COc1cc(-n2cnc3ccc(Cl)cc32)sc1C(N)=O | 4 nM | 1690 nM | 
38 | COc1cc2ncn(-c3cc(OCc4ccoc4)c(C(N)=O)s3)c2cc1OC | 190 nM | 19000 nM | 
39 | CS(=O)(=O)c1ccc2c(c1)ncn2-c1cc(OCc2ccccc2C(F)(F)F)c(C(N)=O)s1 | 250 nM | > 30000 nM | 
40 | COc1cc2ncn(-c3cc(OCC4CCCCC4)c(C(N)=O)s3)c2cc1OC |  | 3090 nM | 
41 | COc1cc2ncn(-c3cc(OCc4ccccc4C(F)(F)F)c(-c4nnn[nH]4)s3)c2cc1OC |  | > 30000 nM | 
42 | COc1cc2ncn(-c3cc(OCCc4ccccc4)c(C(N)=O)s3)c2cc1OC [GSK-204925A] |  | 24100 nM | 
43 | COc1cc2ncn(-c3cc(OCc4cccs4)c(C(N)=O)s3)c2cc1OC [GSK-312948A] | 11 nM | 1540 nM | 
44 | NC(=O)c1sc(-n2cnc3ccccc32)cc1OCc1ccccc1Br [GSK-1023156A] | 11 nM |  | 
45 | COC(=O)c1sc(-n2cnc3cc(OC)c(OC)cc32)cc1OCc1ccccc1C(F)(F)F [GSK-1030058A] | > 1000 nM |  | 
46 | COc1cc2ncn(-c3cc(OCc4ccccc4C(F)(F)F)c(C(C)=O)s3)c2cc1OC [GSK-1030059A] | 85 nM |  | 
47 | CNC(=O)c1sc(-n2cnc3cc(OC)c(OC)cc32)cc1OCc1ccccc1C(F)(F)F [GSK-1030061A] | > 1000 nM |  | 
48 | COc1cc2ncn(-c3cc(OCc4ccccc4C(F)(F)F)c(C(=O)N(C)C)s3)c2cc1OC [GSK-1030062A] | > 1000 nM |  | 
49 | COc1cccc(COc2cc(-n3cnc4ccccc43)sc2C(N)=O)c1 [GW804482X] | 28 nM |  | 
50 | COc1cc2ncn(-c3cc(OCc4ccccc4C(F)(F)F)c(C(N)=O)s3)c2cc1OC [GW843682X] | 2 nM | 699 nM | IC50 [2]: 92 nM; IC50 [3]: > 48000 nM; IC50 [4]: > 15000 nM; IC50 [5]: > 30000 nM; clearance [6]: 47.4 mL/min/kg; Vd [7]: 1.5 L/kg; AUC [8]: 489 ng·h/mL; bioavailability [9]: 14%; IC50 [10]: > 15000 nM; IC50 (A549): 411 nM; IC50 (NCI-H460): 380 nM; IC50 (HN5): 678 nM; IC50 (MCF7): 558 nM; IC50 (NCI-N87): 601 nM; IC50 (RKO): 398 nM; IC50 (PC-3): 6820 nM
51 | COc1cc2ncn(-c3cc(OCc4ccccc4Cl)c(C(N)=O)s3)c2cc1OC [GW852849X] | 2 nM | 999 nM | 
52 | NC(=O)c1sc(-n2cnc3ccc(C(F)(F)F)cc32)cc1OCc1ccccc1Br [GW853606X] | 9 nM | 3590 nM | 
53 | NC(=O)c1sc(-n2cnc3cc(C(F)(F)F)ccc32)cc1OCc1ccccc1Br [GW853609X] | 300 nM | > 30000 nM | 
